Experimental data taken from US6451288B1, “Method of treating lung diseases with uridine 5′-diphosphate and analogs thereof” (The University of North Carolina at Chapel Hill, priority 1997, dated 2002).
One block for each molecule: values may come before it.

Legend:
human P2Y6 receptor = target: T1, human P2Y6 receptor (Homo sapiens, UniProt Q15077); assay: Inositol phosphate accumulation in 1321N1 astrocytoma cells overexpressing the human P2Y6 receptor; assay type: cell-based; details: 60 min, hexokinase/glucose present
T1 construct: expressed in transfected cells
T1 sequence (Q15077 whole entry): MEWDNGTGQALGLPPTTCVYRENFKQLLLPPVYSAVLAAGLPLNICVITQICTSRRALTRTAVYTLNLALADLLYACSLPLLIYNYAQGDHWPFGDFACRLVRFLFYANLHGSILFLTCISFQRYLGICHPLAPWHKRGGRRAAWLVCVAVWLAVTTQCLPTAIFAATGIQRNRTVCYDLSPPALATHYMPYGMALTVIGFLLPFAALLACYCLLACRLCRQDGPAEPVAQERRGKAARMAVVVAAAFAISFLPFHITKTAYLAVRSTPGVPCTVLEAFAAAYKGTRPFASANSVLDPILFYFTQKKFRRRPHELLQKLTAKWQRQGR
Description: The following method was used for measuring inositol phosphate accumulation of the UDP analogs described within this example as drugs. 1321N1 astrocytoma cells, stably overexpressing the human P2Y6 receptor (Nicholas, et al., Mol. Pharmacol. 50, 224-229 (1996)), were seeded into 96 well plates (7500 cells/well) in DMEM-H supplemented with 10% FCS. After 48 hours, the growth media was replaced with inositol-free DMEM-H supplemented with 2.5% dialyzed FCS and [^3H]-inositol (0.2 uCi/well) to radiolabel hormone-responsive inositol phospholipid pools. Cells were stimulated 48 hours later. At the time of assay, the culture media was supplemented with 25 mM HEPES (pH 7.4) and 10 mM […] to prevent hydrolysis of [^3H]-inositol phosphates. In addition, hexokinase (0.03 U/well) and glucose (50 mM final concentration) was added to the cultures to provide an enzymatic mechanism for the depletion of nucleoside triphosphates contaminating drug solutions or released from cells prior to/or during cell stimulation reactions. Drugs were diluted in phosphate buffered saline containing hexokinase/glucose and incubated at 37° for 30 minutes prior to addition to cells. Reactions were terminated after 60 minutes by rapid aspiration of media followed by the addition of ice cold EDTA (1.0 mM) and incubation on ice for at least 15 minutes prior to resolution of [^3H]-inositol phosphates by ion exchange chromatography as described (Brown, et. al., supra).

[1] = Hydrolysis of [3H]UTP and [3H]UDP on human nasal epithelial cell surfaces; assay type: in vitro ADME; details: human, pH 7.4; mucosal, time course; read-out: Half life (t½)
Description: (§1) Nasal monolayers were grown to confluence on 6.5 mm Transwells (Costar) as indicated above. The cells were washed twice and preincubated with 300 μl HEPES-buffered (pH, 7.4) DMEM medium for at least one hour prior to the addition of the [^3H]-nucleotides to ensure that any endogeneously released ATP was degraded. Incubations were initiated by addition of 2 μM [^3H]UTP or [^3H]UDP (0.5 μCi each) to either cell surface. Incubations were terminated at the indicated times by transferring the medium to a tube containing 30 μl 50 mM EDTA and boiled for 2 min. Nucleotides were separated by HPLC (Shimadzu Scientific Instruments, Inc., Columbia, Md.) via a strong anion exchange column (Rainin Instrument Co., Emeryville, Calif.) using a two solvent system consisting of buffer A (45 mM ammonium formate, pH 4.6) and buffer B (250 mM sodium phosphate, pH 2.7). A linear gradient was developed from 100% buffer A to 100% B during the first 25 min. The column then was eluted with 100% buffer B for the […] and with 100% buffer A for an additional 15 min from 45 to 60 min. Absorbance at 260 nm was monitored with a LSA UV detector (Shimadzu), and radioactivity was monitored on-line with a Flo-One detector (Packard Instrument Co., Meridien, Conn.). [^3H]Nucleotides and [^3H]nucleosides were quantitated as previously described. Id. Confluent polarized cells were incubated for 20 min at 37° C. in the presence of 1 μM (0.2 μCi) of [3H]UTP, [^3H]UDP, or [^3H]UDP combined with 100 μM ATP. All additions were to the mucosal bath (300 μl final volume). Incubations were terminated by transferring the mucosal medium to an Eppendorf tube containing 30 μl 50 mM EDTA, followed by boiling. [^3H]Species were separated by HPLC as indicated in Example 6. Hydrolysis of both [^3H]UTP and [^3H]UDP on the surface of human nasal epithelial cells was determined on both cell surfaces by the following procedures: primary cultures of HNE cells were grown to confluence on 6.5 mm Transwells as a polarized epithelium. The cells were washed twice with pre-warmed DMEM-HEPES medium (pH 7.4), and were pre-incubated for 1 hour at 37° C with 0.5 mL of medium added on each side. Incubations were initiated by the addition 50 μl of 10 μM (0.5 μCi) [^3H]UTP or [^3H]UDP on the indicated cell surface. Medium samples were collected during a 20 min incubation period and analyzed by HPLC as described in Example 6. The values represent the mean (±range from the mean) from two experiments performed with duplicate samples.

[2] = tested on: human nasal epithelial cells; assay: as above; assay type: in vitro ADME; details: for Nucleotide Hydrolysis MUCOSAL / Nucleotide Hydrolysis SEROSAL: 20 min incubation period, mean ± range of two experiments; for Nucleotide Hydrolysis SEROSAL: serosal surface
Description: as §1

[3] = tested on: human nasal epithelial cells; assay: Cytosolic Ca2+ measurement (Fura-2) in human nasal epithelial cells; assay type: cell-based
Description: (§2) Human nasal epithelial cells were harvested from turbinates using protease XIV (Sigma, St. Louis, Mo.) for 24-48 h at 4° C., as previously described. R. Wu, et al., Am. Rev. Respir. Dis. 132, 311-320 (1985). Cytosolic Ca^2+ and inositol phosphate measurements were made on nasal cell monolayers plated on porous Transwell Col filters (pore diameter 0.45 μm; Costar, Cambridge, Mass.) and maintained in Ham's F12 media supplemented with 10 ng/mL epidermal growth factor, 3.75 ng/mL endothelial cell growth factor, 500 ng/mL hydrocortisone, 5 ng/mL insulin, and 1 mM CaCl2 (Ham's F12+4X medium). Assays were carried out 7 to 10 days after seeding, a time coincident with the development of the maximal transepithelial potential difference according to N. Nakahata & T. K. Harden, Biochem. J. 241, 337-344 (1987).
(§3) Nasal cells grown on Transwell Col filters affixed to O-rings were maintained in F12+4X medium and studied 7-10 days after cell plating as described above. For Ca^2+i measurements, cells were loaded with Fura-2 and mounted in a miniature Ussing chamber over an objective of a microscope (Zeiss) coupled to a microfluorimeter, and cytosolic Ca^2+i levels were quantitated as previously described in Paradiso et al., supra. The fluorescence intensity ratio (excitation 340/380; emission λ 450 nm) was collected from a field of 30-40 nasal cells on monolayers and converted to Ca^2+ as previously described in E. H. Larsen et al, J. Physiol. 424, 109-131 (1990). For simultaneous measurements of Cl^− secretion, the transepithelial potential difference (TEP) was measured by a Voltage-Clamp/Pulse Generator (Model VCC600, Physiologic Instruments, San Diego, Calif.) and recorded on a two-channel recorder (Linsesis Model L200S). To calculate changes in Cl^− secretory current (ΔICl^−), a defined 1 sec current pulse was delivered across the monolayer every 10 sec. The nasal tissue was converted from its native Na^+ absorptive state to a Cl^− secretory state by exposing monolayers to a luminal medium containing 0 Na^+/low Cl^− and to a basolateral medium of Krebs bicarbonate Ringer solution.

[4] = tested on: human nasal epithelial cells; assay: [3H]inositol phosphate formation in polarized human nasal epithelial cells; assay type: cell-based; details: Homo sapiens, Epithelial cell, 10 min; added to mucosal medium, 10 min; read-out: EC50 for stimulating inositol phosphate formation
Description: as §2
Confluent human nasal epithelial cells as described in Example 1 were labeled for 18 h in inositol-free DMEM containing 4.5g/L glucose and 5 μCi/mL of [^3H]myo-inositol. These cells were pre-incubated with 10 mM LiCl and challenged with agonists for an additional 10 min. No changes of medium were made subsequent to addition of [^3H]myo-inositol to avoid release of endogenous ATP from stressed cells. E. R. Lazarowski et al., Br. J Pharmacol. 116, 1619-1627 (1995). Incubations were terminated by addition of 5% ice-cold trichloroacetic acid and the resultant [^3H]inositol phosphates were separated on Dowex AG1-X8 columns as described in A. M. Paradiso et al., Nature 377, 643-646 (1995).

[5] = tested on: human nasal epithelial cells; assay: Cl- secretion (transepithelial potential difference, Ussing chamber) in human nasal epithelial cells; assay type: cell-based
Description: as §2, §3

EC50 (human P2Y6 receptor): 0.02 µM
Structure (SMILES): O=c1[nH]c(=O)n([C@@H]2O[C@H](COP(=O)(O)OP(=O)(O)O)[C@@H](O)[C@H]2O)cc1C#Cc1ccccc1 [Compound G, 5-(Phenylethynyl)uridine 5′-diphosphate]

EC50 (human P2Y6 receptor): 2.1 µM
Structure (SMILES): O=c1ccn([C@@H]2O[C@H](COP(=O)(O)OP(=O)(O)O)C[C@H]2O)c(=O)[nH]1 [Compound H, 3′-Deoxyuridine 5′-diphosphate]

half-life [1]: 14 ± 2 min | Hydrolysis ([2]; 1 μM, 20 min, mucosal surface, 37° C.): 73±16% | Nucleotide Hydrolysis MUCOSAL ([2]; mucosal surface): 17 ± 22 | Nucleotide Hydrolysis SEROSAL [2]: 98 ± 11
Structure (SMILES): O=c1ccn([C@@H]2O[C@H](COP(=O)(O)OP(=O)(O)OP(=O)(O)O)[C@@H](O)[C@H]2O)c(=O)[nH]1 [[^3H]UTP]

EC50 (human P2Y6 receptor): 55.1 µM
Structure (SMILES): O=c1nc(N2CCOCC2)ccn1[C@@H]1O[C@H](COP(=O)(O)OP(=O)(O)O)[C@@H](O)[C@H]1O [Compound F, 4-(N-morpholino)uridine 5′-diphosphate]

EC50 (human P2Y6 receptor): 1.8 µM
Structure (SMILES): CCCCCCSc1ccn([C@@H]2O[C@H](COP(=O)(O)OP(=O)(O)O)[C@@H](O)[C@H]2O)c(=O)n1 [Compound J, 4-Hexylthiouridine 5′-diphosphate]

EC50 (human P2Y6 receptor): 8.6 µM
Structure (SMILES): O=c1nc(NC2CCCC2)ccn1[C@@H]1O[C@H](COP(=O)(O)OP(=O)(O)O)[C@@H](O)[C@H]1O [Compound I, N-Cyclopentylcytidine 5′-diphosphate]

EC50 [4]: 0.28 ± 0.035 µM | Hydrolysis rate of mucosal UTP relative to mucosal UDP ([2]; mucosal): 2-3 fold
Structure (SMILES): O=c1ccn([C@@H]2O[C@H](COP(=O)(O)OP(=O)(O)OP(=O)(O)O)[C@@H](O)[C@H]2O)c(=O)[nH]1 [UTP, uridine 5′-triphosphate, reference compound]
ΔCa2+, UDP-treated cells ([3]; UDP-treated cells, n=8): 310 ± 35 nM | ΔCa2+, control cells ([3]; control cells, n=19): 374 ± 24 nM | Cl- secretory response (ΔICl-), mucosal bath ([5]; 100 μM, mucosal): 74±11 μA/cm^2 | Cl- secretory response (ΔICl-), serosal bath ([5]; 100 μM, serosal): 34±3 μA/cm^2 | ΔCl-, UDP-treated cells ([5]; UDP-treated cells, n=8, the values are: ΔICl- (Cl- secretory current)): -61 ± 10 µA/cm² | ΔICl-, control cells ([5]; control cells, n=12): −74±11 μA/cm^2

More lines, now with the values behind:

Structure (SMILES): CCCCCCOc1ccn([C@@H]2O[C@H](COP(=O)(O)OP(=O)(O)O)[C@@H](O)[C@H]2O)c(=O)n1 [Compound B, 4-Hexyloxyuridine 5′-diphosphate]
EC50 (human P2Y6 receptor): 3 µM

Structure (SMILES): Cc1cn([C@@H]2O[C@H](COP(=O)(O)OP(=O)(O)O)[C@@H](O)[C@H]2O)c(=O)[nH]c1=O [Compound A, 5-Methyluridine 5′-diphosphate]
EC50 (human P2Y6 receptor): 0.5 µM

Structure (SMILES): CN(C)c1ccn([C@@H]2O[C@H](COP(=O)(O)OP(=O)(O)O)[C@@H](O)[C@H]2O)c(=O)n1 [Compound C, N,N-dimethylcytidine 5′-diphosphate]
EC50 (human P2Y6 receptor): 41.7 µM

Structure (SMILES): O=c1ccn([C@@H]2O[C@H](COP(=O)(O)OP(=O)(O)O)[C@@H](O)[C@H]2O)c(=O)[nH]1 [[^3H]UDP]
half-life [1]: 27 ± 3 min | Nucleotide Hydrolysis MUCOSAL ([2]; mucosal surface): 87 ± 6 | Nucleotide Hydrolysis SEROSAL [2]: 70 ± 9

Structure (SMILES): CCCCCCNc1ccn([C@@H]2O[C@H](COP(=O)(O)OP(=O)(O)O)[C@@H](O)[C@H]2O)c(=O)n1 [Compound E, N-hexylcytidine 5′-diphosphate]
EC50 (human P2Y6 receptor): 25.5 µM

Structure (SMILES): Nc1ncnc2c1ncn2[C@@H]1O[C@H](COP(=O)(O)OP(=O)(O)OP(=O)(O)O)[C@@H](O)[C@H]1O [ATP, reference compound]
Responses following multiple additions of UDP ([3]; after multiple additions of UDP): retained

Structure (SMILES): COc1ccn([C@@H]2O[C@H](COP(=O)(O)OP(=O)(O)O)[C@@H](O)[C@H]2O)c(=O)n1 [Compound D, 4-Methoxyuridine 5′-diphosphate]
EC50 (human P2Y6 receptor): 4.7 µM
